Here are results for seven compounds from patent US5081261A, “4-(1-hydroxy-2-N-substituted sulfonamido) ethyl-5-hydroxy-2(5H)-furanones and 4-(N-substituted sulfonamido)-2-ethenyl-5-hydroxy-2(5H)-furanones as anti-inflammatory agents” (Allergan, Inc., priority 1990, dated 1992).

In assay [1] the target is bee venom phospholipase A2 (Apis mellifera, UniProt P00630). In words: biochemical.
The conditions of assay [2]: prior art; cited from earlier work.
Assay [3] deals with phosphoinositide-specific phospholipase C. Conditions: reported for manoalide, Bennett et al; cited from earlier work.

bee venom phospholipase A2, sequence (P00630 34-167 limits assumed): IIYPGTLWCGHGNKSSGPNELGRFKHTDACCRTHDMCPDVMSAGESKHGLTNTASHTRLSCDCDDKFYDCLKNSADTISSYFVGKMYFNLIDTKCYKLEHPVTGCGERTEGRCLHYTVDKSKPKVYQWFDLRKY

Consider `CCCCCCCCCCCCNS(=O)(=O)CC(O)C1=CC(=O)OC1O` (stereo not drawn) [Compound 5, 4-[1-Hydroxy-2-(N-dodecylsulfonamido)]ethyl-5-hydroxy-2(5H)-furanone], for which, in assay [1], the IC50 was 100 nM.

As to `CC1=C(CC/C(C)=C/CCC2=CCC(C3=CC(=O)OC3O)OC2O)C(C)(C)CCC1` (stereo not drawn) [Compound 1], in assay [2], the biological properties result was “anti-inflammatory,immunosuppressive and analgesic properties”. Besides, the “inhibition of phosphoinositide-specific phospholipase C” value in assay [3] is “inhibition”. Also, in assay [1], the IC50 was 30 nM.

Turning to `CC1=C(CC/C(C)=C/CCC(C=O)=CCC(O)C2=CC(=O)OC2O)C(C)(C)CCC1` (stereo not drawn) [Compound 2], the biological properties entry in assay [2] was “anti-inflammatory activity”.

Regarding `CCCCCCCCCCCCNS(=O)(=O)/C=C/C1=CC(=O)OC1O` (stereo not drawn) [Compound 4, 4-[2-(N-Dodecylsulfonamido)ethenyl]-5-hydroxy-2(5H)-furanone], the IC50 in assay [1] was 40 nM.

As for `CCCCCCCCCCCCNS(=O)(=O)CC(OC(C)=O)C1=CC(=O)OC1O` (stereo not drawn) [Compound 6, 4-[1-Acetoxy-2-(N-dodecylsulfonamido)]ethyl-5-hydroxy-2(5H)-furanone], the IC50 in assay [1] turned out to be 50 nM.

As for `CC1=C(CC/C(C)=C/CCC(C=O)=CC=CC2=CC(=O)OC2O)C(C)(C)CCC1` (stereo not drawn) [Compound 3], the biological properties result in assay [2] is “anti-inflammatory activity”.

`CCCCCCCCCCCCNS(=O)(=O)CC(OC(=O)CCCC(=O)O)C1=CC(=O)OC1O` (stereo not drawn) [Compound 7, 4-[1-Gluraroyloxy-2-(N-dodecylsulfonamido)]ethyl-5-hydroxy-2(5H)-furanone] came in with an IC50 in assay [1] of 50 nM.

As a reminder, the IC50 is the concentration that gives 50% inhibition. The low end stands for higher potency, the high end for lower potency.
